Molecular target: T1, Caspase-1 (Homo sapiens) (UniProt P29466)
T1 sequence (whole entry): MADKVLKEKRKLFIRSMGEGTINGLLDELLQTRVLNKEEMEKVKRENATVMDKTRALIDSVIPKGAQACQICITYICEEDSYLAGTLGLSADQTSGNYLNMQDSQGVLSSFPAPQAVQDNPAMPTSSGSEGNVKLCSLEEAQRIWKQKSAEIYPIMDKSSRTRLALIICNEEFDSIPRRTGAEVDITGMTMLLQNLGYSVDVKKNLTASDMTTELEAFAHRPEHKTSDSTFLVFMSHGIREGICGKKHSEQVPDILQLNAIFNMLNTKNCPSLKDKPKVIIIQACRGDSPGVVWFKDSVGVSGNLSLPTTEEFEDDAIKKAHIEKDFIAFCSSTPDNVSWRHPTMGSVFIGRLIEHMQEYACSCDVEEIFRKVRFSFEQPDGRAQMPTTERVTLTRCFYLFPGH
Assay: Inhibitory activity against human IL-1 beta converting enzyme from monocytic THP-1 cell line, activity expressed as the logarithm of the second order rate constant for inactivation
Type: cell-based

Row | Activity | SMILES
1 | 4.04 | O=C(O)C[C@H](NC(=O)OCc1ccccc1)C(=O)COc1cc(C(F)(F)F)nn1-c1ccccc1
2 | 5.43 | CC(C)[C@H](NC(=O)OCc1ccccc1)C(=O)N1CCCCC1C(=O)N[C@H](CC(=O)O)C(=O)COc1cc(C(F)(F)F)nn1-c1ccccc1 (some centres undefined)
3 | 4.3 | CC(C)[C@H](NC(=O)OCc1ccccc1)C(=O)N[C@@H](CC(=O)O)C(=O)COc1cc(C(F)(F)F)nn1-c1ccccc1
4 | 5.2 | O=C(O)CC(NC(=O)Cn1c(-c2ccc(F)cc2)ncc(NC(=O)OCc2ccccc2)c1=O)C(=O)COc1cc(C(F)(F)F)nn1-c1ccccc1 (centres undefined)
5 | 5.16 | O=C(O)CC(NC(=O)Cn1c(-c2cccnc2)ncc(NC(=O)OCc2ccccc2)c1=O)C(=O)COc1cc(C(F)(F)F)nn1-c1ccccc1 (centres undefined)
6 | 2.7 | C[C@H](NC(=O)[C@H](Cc1ccccc1)NC(=O)OCc1ccccc1)C(=O)COc1cc(C(F)(F)F)nn1-c1ccccc1
7 | 6.08 | Cc1cccc(C)c1C(=O)OCC(=O)[C@H](CC(=O)O)NC(=O)[C@H](C)NC(=O)[C@@H](NC(=O)CCc1ccccc1)C(C)C
8 | 3.93 | CC(C)[C@@H](C(=O)N[C@@H](C)C(=O)N[C@@H](CC(=O)O)C(=O)COc1cc(C(F)(F)F)nn1-c1ccccc1)N(C)C(=O)OCc1ccccc1
9 | 2.48 | CC(C)[C@H](NC(=O)[C@@H]1CCCN1C(=O)OCc1ccccc1)C(=O)N[C@@H](CC(=O)O)C(=O)COc1cc(C(F)(F)F)nn1-c1ccccc1
10 | 5.61 | CC(C)[C@H](NC(=O)OCc1ccccc1)C(=O)N[C@@H](C)C(=O)N[C@@H](CC(=O)O)C(=O)COC(=O)c1c(Cl)cccc1Cl
11 | 5.45 | CC(C)[C@H](NC(=O)OCc1ccccc1)C(=O)N[C@@H](C)C(=O)N[C@@H](CC(=O)O)C(=O)COc1cc(C(F)(F)F)nn1-c1ccccc1
12 | 4.98 | Cc1ncc(NC(=O)OCc2ccccc2)c(=O)n1CC(=O)NC(CC(=O)O)C(=O)COc1cc(C(F)(F)F)nn1-c1ccccc1 (centres undefined)
13 | 5.37 | CC(C)[C@H](NC(=O)OCc1ccccc1)C(=O)N(C)[C@@H](C)C(=O)N[C@@H](CC(=O)O)C(=O)COc1cc(C(F)(F)F)nn1-c1ccccc1
14 | 5.95 | CC(C)[C@H](NC(=O)CCc1ccccc1)C(=O)N[C@@H](C)C(=O)N[C@@H](CC(=O)O)C(=O)COC(=O)c1c(C(F)(F)F)cccc1C(F)(F)F
15 | 5.85 | CC(C)[C@H](NC(=O)CCc1ccccc1)C(=O)N[C@@H](C)C(=O)N[C@@H](CC(=O)O)C(=O)COC(=O)c1c(O)cccc1O
16 | 5.45 | CC(C)[C@H](NC(=O)CCc1ccccc1)C(=O)N[C@@H](C)C(=O)N[C@@H](CC(=O)O)C(=O)COC(=O)c1ccccc1
17 | 5.06 | CC(C)[C@H](NC(=O)OCc1ccccc1)C(=O)N1CCC[C@H]1C(=O)N[C@@H](CC(=O)O)C(=O)COc1cc(C(F)(F)F)nn1-c1ccccc1
18 | 2.48 | CC(C)[C@H](NC(=O)OCc1ccccc1)C(=O)N[C@@H](C)C(=O)N(C)[C@@H](CC(=O)O)C(=O)COc1cc(C(F)(F)F)nn1-c1ccccc1
19 | 6.11 | CC(C)[C@H](NC(=O)CCc1ccccc1)C(=O)N[C@@H](C)C(=O)N[C@@H](CC(=O)O)C(=O)COC(=O)c1ccc([N+](=O)[O-])cc1

Further lines, the molecule ahead of its results:

Row | SMILES | Activity
20 | O=C(O)C[C@H](NC(=O)OCc1ccccc1)C(=O)COP(=O)(Oc1ccccc1)Oc1ccccc1 | 4.07
21 | O=C(O)CC(NC(=O)Cn1c(-c2cccs2)ncc(NC(=O)OCc2ccccc2)c1=O)C(=O)COC(=O)c1c(Cl)cccc1Cl (centres undefined) | 5.43
22 | C=CCOC(=O)N[C@@H](CC(=O)O)C(=O)COC(=O)c1c(C)cccc1C | 2.91
23 | CC(C)[C@H](NC(=O)OCc1ccccc1)C(=O)N[C@@H](C)C(=O)N[C@@H](CC(=O)O)C(=O)COP(=O)(Oc1ccc(Cl)cc1)Oc1ccc(Cl)cc1 | 5.36
24 | C[C@H](NC(=O)[C@H](Cc1ccccc1)NC(=O)OCc1ccccc1)C(=O)COC(=O)c1c(Cl)cccc1Cl | 2.7
25 | CC(C)[C@H](NC(=O)CCc1ccccc1)C(=O)N[C@@H](C)C(=O)N[C@@H](CC(=O)O)C(=O)COC(=O)c1c(F)c(F)c(F)c(F)c1F | 6.04
26 | C=CCOC(=O)N[C@@H](CC(=O)O)C(=O)COC(=O)c1c(O)cccc1O | 3.43
27 | O=C(O)CC(NC(=O)Cn1c(-c2ccc(F)cc2)ncc(NC(=O)c2ccco2)c1=O)C(=O)COC(=O)c1c(Cl)cccc1Cl (centres undefined) | 4.66
28 | O=C(O)CC(NC(=O)Cn1c(-c2ccc(F)cc2)ncc(NC(=O)OCc2ccccc2)c1=O)C(=O)COC(=O)c1c(Cl)cccc1Cl (centres undefined) | 5.43
29 | CC(=O)N[C@@H](Cc1ccc(O)cc1)C(=O)N[C@H](C(=O)N[C@@H](C)C(=O)N[C@@H](CC(=O)O)C(=O)COC(=O)c1c(C)cccc1C)C(C)C | 6.04
30 | CN(C)CCCCCC(=O)Nc1cnc(-c2ccc(F)cc2)n(CC(=O)NC(CC(=O)O)C(=O)COC(=O)c2c(Cl)cccc2Cl)c1=O (centres undefined) | 4.95
31 | CC(C)[C@H](NC(=O)OCc1ccccc1)C(=O)N[C@@H](CC(=O)O)C(=O)COP(=O)(Oc1ccc(Cl)cc1)Oc1ccc(Cl)cc1 | 4.89
32 | CC(C)[C@H](NC(=O)OCc1ccccc1)C(=O)N[C@@H](C)C(=O)N[C@@H](CC(=O)O)C(=O)COP(=O)(Oc1ccccc1)Oc1ccccc1 | 5.07
33 | O=C(O)C[C@H](NC(=O)OCc1ccccc1)C(=O)COC(=O)c1c(Cl)cccc1Cl | 3.85
34 | CC(=O)N[C@@H](Cc1ccc(O)cc1)C(=O)N[C@H](C(=O)N[C@@H](C)C(=O)N[C@@H](CC(=O)O)C(=O)COC(=O)c1c(C(F)(F)F)cccc1C(F)(F)F)C(C)C | 5.98
35 | O=C(O)CC(NC(=O)Cn1c(-c2ccc(F)cc2)ncc(NS(=O)(=O)c2ccccc2)c1=O)C(=O)COC(=O)c1c(Cl)cccc1Cl (centres undefined) | 4.95
36 | C=CCOC(=O)N[C@@H](CC(=O)O)C(=O)COC(=O)c1ccc([N+](=O)[O-])cc1 | 1.79
37 | C=CCOC(=O)N[C@@H](CC(=O)O)C(=O)COC(=O)c1c(F)c(F)c(F)c(F)c1F | 2.99
38 | CC(C)[C@H](NC(=O)OCc1ccccc1)C(=O)N[C@@H](CC(=O)O)C(=O)COP(=O)(Oc1ccccc1)Oc1ccccc1 | 4.7
39 | O=C(O)CC(NC(=O)Cn1c(-c2ccc(F)cc2)ncc(NC(=O)NCc2ccccc2)c1=O)C(=O)COC(=O)c1c(Cl)cccc1Cl (centres undefined) | 5.17
40 | C[C@H](NC(=O)[C@H](Cc1ccccc1)NC(=O)OCc1ccccc1)C(=O)COP(=O)(Oc1ccccc1)Oc1ccccc1 | 2.7
41 | C=CCOC(=O)N[C@@H](CC(=O)O)C(=O)COC(=O)c1c(C(F)(F)F)cccc1C(F)(F)F | 3.72
42 | Nc1cnc(-c2ccc(F)cc2)n(CC(=O)NC(CC(=O)O)C(=O)COC(=O)c2c(Cl)cccc2Cl)c1=O (centres undefined) | 4.56
43 | CC(C)C[C@H](NC(=O)OCc1ccccc1)C(=O)N[C@@H](Cc1ccccc1)C(=O)COP(=O)(Oc1ccccc1)Oc1ccccc1 | 2.7
44 | O=C(O)CC(NC(=O)Cn1c(-c2ccc(F)cc2)ncc(NC(=O)OCc2ccccc2)c1=O)C(=O)COP(=O)(Oc1ccccc1)Oc1ccccc1 (centres undefined) | 5.16

Source: ChEMBL document CHEMBL1132563, “Three-dimensional quantitative structure-activity relationship of interleukin 1-beta converting enzyme inhibitors: A comparative molecular field analysis study” (J Med Chem, 1999)
